Reference: ChEMBL document CHEMBL2429721, “Novel 2,6-bis(4-methoxyphenyl)-1-methylpiperidin-4-one oxime esters: synthesis and a new insight into their antioxidant and antimicrobial potential” (Med Chem Res, 2013)

Assays:
Assay type in all cases: functional
[1] = tested on: Radical scavenging activity; assay: Antioxidant activity assessed as DPPH free radical scavenging activity after 20 mins by UV-visible spectrophotometric analysis
[2] = Antifungal activity against Chrysosporium keratinophilum MTCC 2827 assessed as growth inhibition at 1000 ug/mL after 72 hrs by agar well plate method
[3] = tested on: Staphylococcus aureus; assay: Antibacterial activity against Staphylococcus aureus ATCC 25923 assessed as growth inhibition at 500 ug/mL after 24 hrs by agar well plate method; conditions: ATCC 25923, 24 h, read-out: DIZ
[4] = tested on: Pseudomonas aeruginosa; assay: Antibacterial activity against Pseudomonas aeruginosa ATCC 27853 assessed as growth inhibition at 1000 ug/mL after 24 hrs by agar well plate method; conditions: ATCC 27853, 24 h, read-out: DIZ
[5] = tested on: Candida albicans; assay: Antifungal activity against Candida albicans MTCC 3017 assessed as growth inhibition at 500 ug/mL after 72 hrs by agar well plate method; conditions: MTCC 3017, 72 h, read-out: DIZ
[6] = tested on: Escherichia coli; assay: Antibacterial activity against Escherichia coli ATCC 25922 assessed as growth inhibition at 1000 ug/mL after 24 hrs by agar well plate method; conditions: ATCC 25922, 24 h, read-out: DIZ
[7] = tested on: Staphylococcus aureus; assay: Antibacterial activity against Staphylococcus aureus ATCC 25923 assessed as growth inhibition at 1000 ug/mL after 24 hrs by agar well plate method; conditions: ATCC 25923, 24 h, read-out: DIZ
[8] = Antioxidant activity assessed as cupric ion reducing activity at 10 uM after 30 mins by CUPRAC assay
[9] = tested on: Aspergillus flavus; assay: Antifungal activity against Aspergillus flavus MTCC 3306 assessed as growth inhibition at 1000 ug/mL after 72 hrs by agar well plate method; conditions: MTCC 3306, 72 h, read-out: DIZ
[10] = Antifungal activity against Chrysosporium keratinophilum MTCC 2827 assessed as growth inhibition at 500 ug/mL after 72 hrs by agar well plate method
[11] = Antioxidant activity assessed as ABTS free radical scavenging activity after 30 mins
[12] = tested on: Candida albicans; assay: Antifungal activity against Candida albicans MTCC 3017 assessed as growth inhibition at 1000 ug/mL after 72 hrs by agar well plate method; conditions: MTCC 3017, 72 h, read-out: DIZ
[13] = Antioxidant activity assessed as ferric ion reducing activity at 10 uM after 20 mins by FRAP assay
[14] = tested on: Escherichia coli; assay: Antibacterial activity against Escherichia coli ATCC 25922 assessed as growth inhibition at 500 ug/mL after 24 hrs by agar well plate method; conditions: ATCC 25922, 24 h, read-out: DIZ
[15] = tested on: Pseudomonas aeruginosa; assay: Antibacterial activity against Pseudomonas aeruginosa ATCC 27853 assessed as growth inhibition at 500 ug/mL after 24 hrs by agar well plate method; conditions: ATCC 27853, 24 h, read-out: DIZ
[16] = tested on: Aspergillus flavus; assay: Antifungal activity against Aspergillus flavus MTCC 3306 assessed as growth inhibition at 500 ug/mL after 72 hrs by agar well plate method; conditions: MTCC 3306, 72 h, read-out: DIZ

SMILES	IC50 [1] [µM]	inhibition zone (IZ) [2] [mm]	zone of inhibition at 500 µg/mL [3] [mm]	zone of inhibition at 1000 µg/mL [4] [mm]	zone of inhibition at 500 µg/mL [5] [mm]	zone of inhibition at 1000 µg/mL [6] [mm]	zone of inhibition at 1000 µg/mL [7] [mm]	Activity [8]	zone of inhibition at 1000 µg/mL [9] [mm]	inhibition zone (IZ) [10] [mm]	IC50 [11] [µM]	zone of inhibition at 1000 µg/mL [12] [mm]	Activity [13]	zone of inhibition at 500 µg/mL [14] [mm]	zone of inhibition at 500 µg/mL [15] [mm]	zone of inhibition at 500 µg/mL [16] [mm]
COc1ccc(C2CC(=NOC(=O)c3cc(OC)c(OC)c(OC)c3)CC(c3ccc(OC)cc3)N2C)cc1 (stereo not given)	71	5	3	5	3	4	5	0.232	2	2	93	3	0.286	3	3	3
OC(Cn1cncn1)(Cn1cncn1)c1ccc(F)cc1F [FLUCONAZOLE]		17			20				13	15		22				11
COc1ccc(C2CC(=NOC(=O)c3ccc(C)cc3)CC(c3ccc(OC)cc3)N2C)cc1 (stereo not given)	143	1	1	2	1	3	3	0.127	2	2	368	2	0.154	1	2	1
COc1ccc(C2CC(=NOC(=O)c3cccc(O)c3)CC(c3ccc(OC)cc3)N2C)cc1 (stereo not given)	21	1	4	5	1	6	6	0.265	1	0	34	3	0.321	5	3	0
COc1ccc(C2CC(=NOC(=O)c3cc(O)cc(O)c3)CC(c3ccc(OC)cc3)N2C)cc1 (stereo not given)	12	0	4	5	3	3	4	0.363	1	1	19	3	0.352	4	4	0
CN[C@@H]1[C@H](O[C@H]2[C@H](O[C@H]3[C@H](O)[C@@H](O)[C@H](N=C(N)N)[C@@H](O)[C@@H]3N=C(N)N)O[C@@H](C)[C@]2(O)C=O)O[C@@H](CO)[C@H](O)[C@H]1O [STREPTOMYCIN]			10	16		16	15							10	13	
COc1ccc(C2CC(=NOC(=O)c3ccc([N+](=O)[O-])cc3)CC(c3ccc(OC)cc3)N2C)cc1 (stereo not given)	120	4	3	8	7	7	7	0.157	3	3	280	6	0.216	3	5	2
COc1ccc(C(=O)ON=C2CC(c3ccc(OC)cc3)N(C)C(c3ccc(OC)cc3)C2)cc1 (stereo not given)	32	3	1	4	5	2	3	0.245	5	3	68	7	0.31	1	3	4
COc1ccc(C2CC(=NOC(=O)c3cccc(Cl)c3)CC(c3ccc(OC)cc3)N2C)cc1 (stereo not given)	186	7	7	11	7	12	9	0.179	7	5	136	10	0.243	7	8	6
COc1ccc(C2CC(=NOC(=O)c3ccc(Cl)cc3)CC(c3ccc(OC)cc3)N2C)cc1 (stereo not given)	98	8	8	16	10	16	12	0.192	8	7	135	11	0.258	10	12	5
COc1ccc(C2CC(=NOC(=O)c3ccc(F)cc3)CC(c3ccc(OC)cc3)N2C)cc1 (stereo not given)	86	9	9	19	10	17	13	0.163	12	7	152	16	0.236	12	15	10
COc1ccc(C2CC(=NOC(=O)c3ccccc3)CC(c3ccc(OC)cc3)N2C)cc1 (stereo not given)	152	2	2	2	2	2	3	0.111	1	1	375	3	0.132	1	1	1
COc1ccc(C2CC(=NOC(=O)c3ccccc3OC(C)=O)CC(c3ccc(OC)cc3)N2C)cc1 (stereo not given)	132	3	2	5	5	4	5	0.131	2	2	350	4	0.179	2	4	1
COc1ccc(C2CC(=NOC(=O)c3ccc(O)cc3)CC(c3ccc(OC)cc3)N2C)cc1 (stereo not given)	15	2	3	3	2	4	5	0.293	0	1	25	2	0.333	3	2	1
COc1ccc(C2CC(=NOC(=O)c3ccc(OC)cc3OC)CC(c3ccc(OC)cc3)N2C)cc1 (stereo not given)	56	4	2	6	4	5	4	0.236	4	3	80	6	0.296	3	6	3
